# Legend:
# Trypanosoma cruzi [1] = assay: GSK_TCAKS: pIC50 Trypanosoma cruzi viability assay using beta-GAL activity. This assay was run at single shot at 5uM compound concentration per well. The biological reagents consisted of NIH-3T3 host cells and trypomastigotes parasitic cells; both cell types were set to a 3.3 * 10^5 cells/mL dilution in assay DMEM by means of a CASY cell counter device using a 60um capillary. 6 uL of the mixture were dispensed per well (about 1 * 10^3 host-cells and 1 * 10^3 parasites) with a Multidrop Combi dispenser. […] In all wells, the percentage of DMSO never exceeded 0.5%. Plates incubated for four days at 37C, 5% CO2. The substrate used for the assay fluorescence intensity (FLINT) readout was resorufin-beta-D-galactopiranoside (Sigma-Aldrich) at 5uM per well. It was diluted in PBS supplemented with the soft detergent Igepal (Fluka).; type: functional, organism-based, Mus musculus; conditions: Tulahuen, NIH3T3
# Trypanosoma cruzi [2] = assay: (§1) GSK_TCAKS: pIC50 Trypanosoma cruzi Imaging: Infected Cells. […] Cells were then washed once with PBS before infection. T. cruzi trypomastigotes, collected at days 5 to 8 after infection from LLC-MK2 parasite infected cultures, were allowed to swim out for 4h at 37C from a centrifuged pellet (2,500 rpm/10 min/room temperature). Trypomastigotes were then collected and counted in a CASY Cell Counter. Trypomastigotes, in supplemented DMEM, were added to H9c2 cultures in a multiplicity of infection of 1 and incubated for 18 h. Cells were washed once with PBS before incubation of the infected H9c2 monolayer with trypsin (Life-Technologies) to detach cells from the flask. Cells were counted in a CASY Cell Counter using a 150 um capillary and their density set at 5 * 10^4 cells per mL in supplemented assay DMEM. Infected H9c2 were dispensed into 384-well poly-lysine coated assay plates at 50uL per well using a Multidrop Combi dispenser. After seeding them, the plates were incubated at 37C, 5% CO2 for 72h. Cultures were then fixed and stained by addition of 50 uL of a solution containing 8% formaldehyde and 4 uM DRAQ5 DNA dye (BioStatus, UK) per well. […] Five images were collected per well for reliable statistical analysis. Automated image analysis was performed with a script developed on Acapella High Content Imaging and Analysis Software (PerkinElmer). Output: percentage of infected cells per well as a second infection marker.; type: functional, organism-based, Rattus norvegicus; conditions: H9c2, 4 h
# Trypanosoma cruzi [3] = assay: GSK_TCAKS: pIC50 Trypanosoma cruzi Imaging: Amastigotes/Cell. […] Cells were then washed once with PBS before infection. T. cruzi trypomastigotes, collected at days 5 to 8 after infection from LLC-MK2 parasite infected cultures, were allowed to swim out for 4h at 37C from a centrifuged pellet (2,500 rpm/10 min/room temperature). Trypomastigotes were then collected and counted in a CASY Cell Counter. Trypomastigotes, in supplemented DMEM, were added to H9c2 cultures in a multiplicity of infection of 1 and incubated for 18 h. Cells were washed once with PBS before incubation of the infected H9c2 monolayer with trypsin (Life-Technologies) to detach cells from the flask. Cells were counted in a CASY Cell Counter using a 150 um capillary and their density set at 5 * 10^4 cells per mL in supplemented assay DMEM. Infected H9c2 were dispensed into 384-well poly-lysine coated assay plates at 50uL per well using a Multidrop Combi dispenser. After seeding them, the plates were incubated at 37C, 5% CO2 for 72h. Cultures were then fixed and stained by addition of 50 uL of a solution containing 8% formaldehyde and 4 uM DRAQ5 DNA dye (BioStatus, UK) per well. […] Five images were collected per well for reliable statistical analysis. Automated image analysis was performed with a script developed on Acapella High Content Imaging and Analysis Software (PerkinElmer). Output: number of amastigotes per cell as infection level measurement.; type: functional, organism-based, Rattus norvegicus; conditions: H9c2, 4 h
# Trypanosoma cruzi [4] = assay: as §1, with “H2C9” for “Trypanosoma cruzi”, “H9c2 Host Cardiomyocytes.” for “Infected Cells.”, “Number” for “percentage”, “H9c2 Host Cardiomyocytes nuclei to determine drug-related cytotoxicity.” for “infected cells per well as a second infection marker.”; type: functional, organism-based, Rattus norvegicus; conditions: H9c2, 4 h
# Leishmania donovani [5] = assay: GSK_TCAKS: pIC50 Leishmania donovani viability assay using fluorescence intensity. Assay plates (1536-well) were prepared by adding 30nL per well of compound. For single shot assay, the final compound concentration was 5uM. […] Briefly, eGFP LdBOB axenic amastigotes were harvested, fixed and counted in a CASY cell counter (Roche-Applied Science). A final concentration of 1.5 * 10^5 cells per well were prepared in amastigote media containing 500 U/mL penicillin/streptomycin (Invitrogen) and 6uL was dispensed to each experimental well using a Multidrop Combi dispenser (Thermo Scientific). 6uL of assay media was dispensed to control columns used as reference for 100% compound response. Following incubation for 72 h at 37C, 5% CO2, 2 uL of resazurin was added to each well at a final concentration of 0.5 mM in phosphate buffered saline (PBS) with IGEPAL (Sigma-Aldrich), 0.05% (v/v).; type: functional, organism-based
# Leishmania donovani [6] = assay: (§2) GSK_TCAKS: pIC50 Leishmania donovani Imaging: Infected Macrophages. Assay plates (384-well) were prepared by adding 250nL of compound to each well. For single shot assay, the final compound concentration was 5 uM. […] Automated image analysis was performed with a script developed on Acapella High Content Imaging and Analysis Software (PerkinElmer). Output: Percent of infected macrophage cells were reported for each well.; type: functional, organism-based, Homo sapiens; conditions: THP-1
# Leishmania donovani [7] = assay: as §2, with “Amastigotes/Macrophages.” for “Infected Macrophages.”, “Average number” for “Percent”, “amastigotes per” for “infected”, “cell” for “cells”; type: functional, organism-based, Homo sapiens; conditions: THP-1
# Leishmania donovani [8] = assay: as §2, with “THP-1 Host” for “Infected”, “THP-1 cell count” for “Percent of infected macrophage cells”; type: functional, organism-based, Homo sapiens
# [9] = tested on: Trypanosoma brucei brucei; assay: GSK_TCAKS: pIC50 Trypanosoma brucei viability assay using fluorescence intensity. Assay plates (1536-well) were prepared by dispensing 25nL of compound solution per well using an Echo acoustic dispenser (Labcyte).; type: functional, organism-based; conditions: Lister 427, 2 h
# [10] = tested on: Trypanosoma brucei brucei; assay: GSK_TCAKS: pIC50 Trypanosoma brucei viability assay using luminiscence. Assay plates (1536-well) were prepared. T. brucei cultures were harvested and counted in a CASY cell counter. A parasite suspension was prepared at a final concentration of 5 * 10^4 cells/mL in complete HMI9 medium and 6uL was dispensed to all wells containing compounds using a Multidrop Combi dispenser. 6uL of HMI9 media with 0.4% DMSO were dispensed to control columns. Plates were incubated for 24 h at 37C, 5% CO2 then tempered for 10 min at room temperature. ATP content was quantified by adding 4 uL of CellTiter-Glo Reagent (Promega) according to the manufacturer's instructions. Luminescence was measured using a ViewLux.; type: functional, organism-based; conditions: Lister 427, CASY
# [11] = GSK_TCAKS: pIC50 HepG2 human cell line viability assay using luminiscence. […] Seeding density was checked to ensure that new mono-layers were not more than 50% confluent at the time of harvesting. Cell suspension was added to 500 mL of the same medium at a final density of 1.2 * 10^5 cells/mL. This cell suspension was dispensed (25 uL, 3000 cells per well) into 384-well clear-bottom plates using a Multidrop Combi dispenser. Prior to addition of the cell suspension, the screening compounds (250 nL) were pre-dispensed into the plates with an Echo liquid handler. Plates were incubated for 48 h at 37C, 5% CO2. After incubation, plates equilibrated at room temperature for 30 min before proceeding to develop the luminescent signal. The signal developer, CellTiter-Glo Reagent, was allowed to equilibrate at room temperature for 30 min and added to the plates (25uL per well) using a Multidrop Combi dispenser. Plates were left for 10 min at room temperature for stabilization and then read using a ViewLux.; type: toxicity, cell-based
# NIH3T3 = assay: GSK_TCAKS: pIC50 NIH 3T3 cell line viability assay using luminiscence. Tissue culture surface treated assay plates (1536-well) were used. […] The 100% cells survival control was determined exposing the host-cells to a 0.5% DMSO concentration, whereas the 100% toxicity control was achieved by seeding the cells in presence of Amphotericin B at 50uM. Plates were incubated for four days at 37C, 5% CO2. The assay readout was developed by addition of 5uL of CellTiter-Glo Reagent following the manufacturer's instructions. Luminiscence was measured using a ViewLux.; type: functional, cell-based; conditions: Mus musculus, NIH3T3, 96 h
# [12] = target: Sterol 14-alpha demethylase (Trypanosoma cruzi (strain CL Brener), UniProt Q7Z1V1); assay: GSK_TCAKS: pIC50 CYP51 from Trypanosoma cruzi.; type: functional
# Sterol 14-alpha demethylase, sequence (Q7Z1V1 whole entry): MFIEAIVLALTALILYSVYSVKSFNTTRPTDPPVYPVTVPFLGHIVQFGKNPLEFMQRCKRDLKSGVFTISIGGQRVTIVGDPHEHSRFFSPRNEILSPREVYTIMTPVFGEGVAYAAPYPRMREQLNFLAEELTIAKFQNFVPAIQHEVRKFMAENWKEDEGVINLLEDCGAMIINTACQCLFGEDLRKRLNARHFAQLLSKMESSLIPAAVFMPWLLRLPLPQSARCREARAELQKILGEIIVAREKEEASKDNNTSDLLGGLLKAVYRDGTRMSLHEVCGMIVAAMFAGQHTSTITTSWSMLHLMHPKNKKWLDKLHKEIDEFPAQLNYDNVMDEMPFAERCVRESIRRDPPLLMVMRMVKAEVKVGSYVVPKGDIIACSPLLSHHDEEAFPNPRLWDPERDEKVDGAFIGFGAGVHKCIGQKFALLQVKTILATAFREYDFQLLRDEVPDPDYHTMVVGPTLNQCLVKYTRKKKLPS
SMILES,IC50 (Trypanosoma cruzi [1]),IC50 (Trypanosoma cruzi [2]),IC50 (Trypanosoma cruzi [3]),IC50 (Trypanosoma cruzi [4]),IC50 (Leishmania donovani [5]),IC50 (Leishmania donovani [6]),IC50 (Leishmania donovani [7]),IC50 (Leishmania donovani [8]),IC50 [9],IC50 [10],IC50 at 48 h [11],IC50 (NIH3T3),IC50 [12]
Cc1ccc2nc(N(Cc3cccnc3)C(=O)CCc3ccccc3)sc2c1,0.0398 µM,0.0398 µM,0.0316 µM,> 50.1 µM,25.1 µM,> 50.1 µM,> 50.1 µM,> 50.1 µM,12.6 µM,20 µM,> 100 µM,15.8 µM,0.0631 µM
O=S(=O)(NCC(c1cccnc1)N1CCN(c2ccc(F)cc2)CC1)c1cccs1 (stereo not given),0.158 µM,0.126 µM,0.126 µM,> 50.1 µM,> 50.1 µM,> 50.1 µM,> 50.1 µM,> 50.1 µM,> 39.8 µM,> 39.8 µM,> 100 µM,> 50.1 µM,0.0398 µM
CC(CNS(=O)(=O)c1ccc(OC(F)F)cc1)c1ccc(NC(=O)c2ccncc2)cc1 (stereo not given),0.2 µM,0.1 µM,0.0794 µM,> 50.1 µM,> 50.1 µM,> 50.1 µM,5.01 µM,15.8 µM,7.94 µM,20 µM,100 µM,> 50.1 µM,0.0501 µM
Cn1cc(CN2CCN(c3ccc4c(c3)CCN(C(=O)[C@H]3C[C@@H]3c3ccccc3)CC4)CC2)cn1,1.58 µM,3.16 µM,0.794 µM,31.6 µM,0.631 µM,31.6 µM,1 µM,6.31 µM,25.1 µM,39.8 µM,50.1 µM,20 µM,15.8 µM
Cc1ccc(S(=O)(=O)Cn2nnnc2C(c2cccnc2)N2CCN(c3ccccc3)CC2)cc1 (stereo not given),0.501 µM,0.316 µM,0.316 µM,> 50.1 µM,1 µM,> 50.1 µM,> 50.1 µM,> 50.1 µM,31.6 µM,> 39.8 µM,> 100 µM,31.6 µM,0.2 µM
Cc1cc(C#N)c([N+](=O)[O-])cc1Br,0.2 µM,0.316 µM,0.0501 µM,50.1 µM,25.1 µM,39.8 µM,31.6 µM,25.1 µM,0.794 µM,3.98 µM,31.6 µM,20 µM,7.94 µM
CC(C(=O)Nc1ccc(Br)cc1)N1CCN(c2ccc([N+](=O)[O-])cc2)CC1 (stereo not given),2.51 µM,2.51 µM,3.16 µM,> 50.1 µM,> 50.1 µM,> 50.1 µM,> 50.1 µM,> 50.1 µM,> 39.8 µM,> 39.8 µM,> 100 µM,> 50.1 µM,39.8 µM
Cc1cc2ncn(-c3ccc([N+](=O)[O-])cc3C#N)c2cc1C,1.26 µM,2 µM,0.794 µM,> 50.1 µM,> 50.1 µM,> 50.1 µM,> 50.1 µM,> 50.1 µM,20 µM,> 39.8 µM,> 100 µM,> 50.1 µM,> 100 µM
O=C(CN(c1cccc(C(F)(F)F)c1)S(=O)(=O)c1ccc(Cl)cc1)NCc1ccc(F)c(F)c1,0.794 µM,0.794 µM,0.501 µM,> 50.1 µM,> 50.1 µM,> 50.1 µM,> 50.1 µM,20 µM,10 µM,25.1 µM,> 100 µM,31.6 µM,0.158 µM
COc1ccc(S(=O)(=O)NCc2ccc(-c3ccc(CN(C)CCO)cc3)cc2)cc1,0.0398 µM,2.51 µM,1.26 µM,> 50.1 µM,> 50.1 µM,15.8 µM,20 µM,20 µM,3.16 µM,3.16 µM,50.1 µM,15.8 µM,15.8 µM
CCCN1CCN(Cc2ccc(S(=O)(=O)Nc3cccc(C)c3)cc2)CC1,0.794 µM,0.794 µM,0.631 µM,> 50.1 µM,25.1 µM,> 50.1 µM,> 50.1 µM,> 50.1 µM,25.1 µM,> 39.8 µM,> 100 µM,25.1 µM,> 100 µM
O=C(CSc1ccc(-c2ccccn2)nn1)Nc1ccc(Cl)cc1,2.51 µM,2.51 µM,2 µM,> 50.1 µM,> 50.1 µM,> 50.1 µM,> 50.1 µM,> 50.1 µM,10 µM,> 39.8 µM,> 100 µM,31.6 µM,> 100 µM
O=C(Nc1cccc(F)c1)N1CCC(Oc2cccc(-c3cccnc3)c2)CC1,0.631 µM,0.631 µM,0.501 µM,25.1 µM,0.501 µM,> 50.1 µM,0.794 µM,20 µM,25.1 µM,> 39.8 µM,> 100 µM,39.8 µM,0.158 µM
O=[N+]([O-])c1cccc(Nc2cncc(-c3ccccc3CO)c2)c1,0.316 µM,0.398 µM,0.251 µM,> 50.1 µM,39.8 µM,> 50.1 µM,> 50.1 µM,> 50.1 µM,> 39.8 µM,> 39.8 µM,> 100 µM,39.8 µM,3.16 µM
O=C(NC(c1ccc(Cl)cc1)c1cnccn1)C1CCN(C(=O)Nc2cccc(C(F)(F)F)c2)CC1 (stereo not given),0.631 µM,0.631 µM,0.501 µM,> 50.1 µM,20 µM,> 50.1 µM,> 50.1 µM,39.8 µM,12.6 µM,6.31 µM,> 100 µM,39.8 µM,0.126 µM

# From ChEMBL document CHEMBL3430912, “GSK Tres Cantos Anti-Kinetoplastid Screening (TCAKS) Data”
